Measurements from patent US11739101B2, “Bifunctional degraders of hematopoietic progenitor kinase and therapeutic uses thereof” (Nurix Therapeutics, Inc., priority 2020, dated 2023).

The compounds below were run against T1, HPK1 (Homo sapiens, UniProt Q92918) (assay: HPK1 Cellular HiBiT Degradation Assay). Conditions: HiBiT-tagged HPK1 Jurkat cells, 24 hours, 10 uM to 0.1 nM; Dmax = 100 minus lowest % HPK1 remaining vs DMSO vehicle.
T1 construct: A HiBiT tag was introduced by CRISPR on the N terminus of HPK1 in Jurkat cells; host or cells: Jurkat (ATCC TIB-152), monoclonal CRISPR HiBiT knock-in line
T1 sequence (Q92918 whole entry): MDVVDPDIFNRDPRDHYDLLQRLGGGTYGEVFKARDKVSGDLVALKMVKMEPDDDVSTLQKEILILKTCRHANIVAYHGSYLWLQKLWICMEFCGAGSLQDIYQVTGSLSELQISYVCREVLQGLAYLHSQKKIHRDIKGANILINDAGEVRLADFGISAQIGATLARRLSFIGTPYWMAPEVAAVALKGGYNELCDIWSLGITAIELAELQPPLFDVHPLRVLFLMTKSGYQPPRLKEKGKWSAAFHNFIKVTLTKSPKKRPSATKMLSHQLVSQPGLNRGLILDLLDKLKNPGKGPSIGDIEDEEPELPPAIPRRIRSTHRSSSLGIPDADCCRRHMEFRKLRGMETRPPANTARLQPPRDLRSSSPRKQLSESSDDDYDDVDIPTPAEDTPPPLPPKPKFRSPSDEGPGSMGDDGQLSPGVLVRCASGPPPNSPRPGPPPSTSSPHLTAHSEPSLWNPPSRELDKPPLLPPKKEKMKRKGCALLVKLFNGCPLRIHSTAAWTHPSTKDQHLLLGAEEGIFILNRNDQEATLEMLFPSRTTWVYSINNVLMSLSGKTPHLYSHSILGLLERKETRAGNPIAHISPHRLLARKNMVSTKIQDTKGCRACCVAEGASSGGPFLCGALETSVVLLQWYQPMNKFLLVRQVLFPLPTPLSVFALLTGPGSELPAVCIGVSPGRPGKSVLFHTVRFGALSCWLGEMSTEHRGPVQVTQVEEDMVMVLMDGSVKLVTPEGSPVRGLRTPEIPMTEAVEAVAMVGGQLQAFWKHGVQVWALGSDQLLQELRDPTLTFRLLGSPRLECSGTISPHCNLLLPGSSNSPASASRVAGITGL
Assay type: cell-based
Summary of the method: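 Dmax is derived from four-parameter curves of % HPK1 remaining, as 100 minus the lowest value, normalized to DMSO-treated cells with parental Jurkat background subtracted. HiBiT-HPK1 knock-in Jurkat cells got compound for 24 hours (final 10 uM to 0.1 nM, 11 points) before lytic HiBiT luminescence. Cytotoxicity was checked on parallel CellTiter-Glo plates.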

| Dmax | Compound | Cellular HPK1 HiBiT: Dmax (%) |
| --- | --- | --- |
| 45 to 65% | Cc1cc(F)c(Nc2nc(-c3ccc4c(c3)N([C@H]3C[C@@H](N5CCCCC5)C3)C(=O)C43CCN(C(=O)CCOCCOCCOCCOCCNc4cccc5c4C(=O)N(C4CCC(=O)NC4=O)C5=O)CC3)cc3ncn(C(C)C)c23)cc1C(=O)NC(C)C (stereo partly drawn) [Example 2, 5-((6-(1′-(1-((2-(2,6-dioxopiperidin-3-yl)-1,3-dioxoisoindolin-4-yl)amino)-3,6,9,12-tetraoxapentadecan-15-oyl)-2-oxo-1-((1s,3s)-3-(piperidin-1-yl)cyclobutyl)spiro[indoline-3,4′-piperidin]-6-yl)-3-isopropyl-3H-imidazo[4,5-c]pyridin-4-yl)amino)-4-fluoro-N-isopropyl-2-methylbenzamide] | – |
| > 65% | Cc1cc(F)c(Nc2nc(-c3ccc4c(c3)N([C@H]3C[C@@H](N5CCCCC5)C3)C(=O)C43CCN(C(=O)C4CCN(Cc5ccc(C(=O)NCCNc6cccc7c6C(=O)N(C6CCC(=O)NC6=O)C7=O)nc5)CC4)CC3)cc3ncn(C(C)C)c23)cc1C(=O)NC(C)C (stereo partly drawn) [Example 89, N-(2-{[2-(2,6-dioxopiperidin-3-yl)-1,3-dioxoisoindol-4-yl]amino}ethyl)-5-[(4-{[6-(4-{[2-fluoro-5-(isopropylcarbamoyl)-4-methylphenyl]amino}-3-isopropylimidazo[4,5-c]pyridin-6-yl)-2-oxo-1-[(s,3s)-3-(piperidin-1-yl)cyclobutyl]spiro[indole-3,4′-piperidin]-1′-yl]carbonyl}piperidin-1-yl)methyl]pyridine-2-carboxamide] | – |
| – | Cc1cc(F)c(Nc2nc(-c3ccc4c(c3)N(C3CC(N5CCCCC5)C3)C(=O)C43CCN(C(=O)C4CCN(C(=O)C5CCN(c6ccc7c(c6)C(=O)N(C6CCC(=O)NC6=O)C7=O)CC5)CC4)CC3)cc3ncn(C(C)C)c23)cc1C(=O)NC(C)C (stereo not drawn) [Example 41, 5-[(6-{1′-[1-(1-{2-[2,6-dioxopiperidin-3-yl]-1,3-dioxo-2,3-dihydro-1H-isoindol-5-yl}piperidine-4-carbonyl)piperidine-4-carbonyl]-2-oxo-1-[(1s,3s)-3-(piperidin-1-yl)cyclobutyl]-1,2-dihydrospiro[indole-3,4′-piperidin]-6-yl}-3-(propan-2-yl)-3H-imidazo[4,5-c]pyridin-4-yl)amino]-4-fluoro-2-methyl-N-(propan-2-yl)benzamide] | B (45%≤B≤65%) |
| < 45% | Cc1cc(F)c(Nc2nc(-c3ccc4c(c3)N([C@H]3C[C@@H](N5CCCCC5)C3)C(=O)C43CCN(C(=O)C[C@H]4CCN(C(=O)[C@H]5CC[C@H](Nc6cccc7c6C(=O)N(C6CCC(=O)NC6=O)C7=O)CC5)C4)CC3)cc3ncn(C(C)C)c23)cc1C(=O)NC(C)C (stereo partly drawn) [Example 57, 4-fluoro-2-methyl-5-{[6-(2-oxo-1′-{2-[(3R)-1-[(1R,4R)-4-({2-[2,6-dioxopiperidin-3-yl]-1,3-dioxo-2,3-dihydro-1H-isoindol-4-yl}amino)cyclohexanecarbonyl]pyrrolidin-3-yl]acetyl}-1-[(1s,3s)-3-(piperidin-1-yl)cyclobutyl]-1,2-dihydrospiro[indole-3,4′-piperidin]-6-yl)-3-(propan-2-yl)-3H-imidazo[4,5-c]pyridin-4-yl]amino}-N-(propan-2-yl)benzamide] | – |
| 45 to 65% | Cc1cc(F)c(Nc2nc(-c3ccc4c(c3)N([C@H]3C[C@@H](N5CCCCC5)C3)C(=O)C43CCN(C(=O)CN4CCC(c5ccc(C(=O)NCCNc6cccc7c6C(=O)N(C6CCC(=O)NC6=O)C7=O)cc5)CC4)CC3)cc3ncn(C(C)C)c23)cc1C(=O)NC(C)C (stereo partly drawn) [Example 90, 5-[(6-{1′-[2-(4-{4-[(2-{[2-(2,6-dioxopiperidin-3-yl)-1,3-dioxoisoindol-4-yl]amino}ethyl)carbamoyl]phenyl}piperidin-1-yl)acetyl]-2-oxo-1-[(1s,3s)-3-(piperidin-1-yl)cyclobutyl]spiro[indole-3,4′-piperidin]-6-yl}-3-isopropylimidazo[4,5-c]pyridin-4-yl)amino]-4-fluoro-N-isopropyl-2-methylbenzamide] | – |
| > 65% | Cc1cc(F)c(Nc2nc(-c3ccc4c(c3)N([C@H]3C[C@@H](N5CCCCC5)C3)C(=O)C43CCN(C(=O)[C@@H]4CCN(C(=O)[C@H]5CC[C@H](N(C)c6cccc7c6C(=O)N(C6CCC(=O)NC6=O)C7=O)CC5)C4)CC3)cc3ncn(C(C)C)c23)cc1C(=O)NC(C)C (stereo partly drawn) [Example 67, 4-fluoro-2-methyl-5-[(6-{2-oxo-1′-[(3R)-1-[(R,4R)-4-({2-[2,6-dioxopiperidin-3-yl]-1,3-dioxo-2,3-dihydro-1H-isoindol-4-yl}(Methyl)amino)cyclohexanecarbonyl]pyrrolidine-3-carbonyl]-1-[(1s,3s)-3-(piperidin-1-yl)cyclobutyl]-1,2-dihydrospiro[indole-3,4′-piperidin]-6-yl}-3-(propan-2-yl)-3H-imidazo[4,5-c]pyridin-4-yl)amino]-N-(propan-2-yl)benzamide] | – |
| < 45% | CC(=O)N1CCC2(CC1)C(=O)N([C@H]1C[C@@H](N3CCC[C@@H](C(=O)NCCCCCCCOc4cc(-c5scnc5C)ccc4CNC(=O)[C@@H]4C[C@@H](O)CN4C(=O)[C@@H](NC(=O)C4(F)CC4)C(C)(C)C)C3)C1)c1cc(-c3cc4ncn(C(C)C)c4c(Nc4cc(C(=O)NC(C)C)c(C)cc4F)n3)ccc12 [Example 16, (R)-1-((1s,3s)-3-(1′-acetyl-6-(4-((2-fluoro-5-(isopropylcarbamoyl)-4-methylphenyl)amino)-3-isopropyl-3H-imidazo[4,5-c]pyridin-6-yl)-2-oxospiro[indoline-3,4′-piperidin]-1-yl)cyclobutyl)-N-(7-(2-(((2S,4R)-1-((S)-2-(1-fluorocyclopropane-1-carboxamido)-3,3-dimethylbutanoyl)-4-hydroxypyrrolidine-2-carboxamido)methyl)-5-(4-methylthiazol-5-yl)phenoxy)heptyl)piperidine-3-carboxamide] | – |
| 45 to 65% | Cc1cc(F)c(Nc2nc(-c3ccc4c(c3)N([C@H]3C[C@@H](N5CCCCC5)C3)C(=O)C43CCN(C(=O)C4CCN(C(=O)C5CCC(Nc6cccc7c6C(=O)N(C6CCC(=O)NC6=O)C7=O)CC5)C4)CC3)cc3ncn(C(C)C)c23)cc1C(=O)NC(C)C (stereo partly drawn) [Example 26, 4-fluoro-2-methyl-5-[(6-{2-oxo-1′-[1-[(1R,4R)-4-({2-[2,6-dioxopiperidin-3-yl]-1,3-dioxo-2,3-dihydro-1H-isoindol-4-yl}amino)cyclohexanecarbonyl]pyrrolidine-3-carbonyl]-1-[(1s,3s)-3-(piperidin-1-yl)cyclobutyl]-1,2-dihydrospiro[indole-3,4′-piperidin]-6-yl}-3-(propan-2-yl)-3H-imidazo[4,5-c]pyridin-4-yl)amino]-N-(propan-2-yl)benzamide] | – |
| < 45% | Cc1cc(F)c(Nc2nc(-c3ccc4c(c3)N(C3CC(N5CCCCC5)C3)C(=O)C43CCN(C(=O)CN4CC5(CCN(c6ccc7c(c6)C(=O)N(C6CCC(=O)NC6=O)C7=O)CC5)C4)CC3)cc3ncn(C(C)C)c23)cc1C(=O)NC(C)C (stereo not drawn) [Example 28, 5-[(6-{1′-[2-(7-{2-[2,6-dioxopiperidin-3-yl]-1,3-dioxo-2,3-dihydro-1H-isoindol-5-yl}-2,7-diazaspiro[3.5]nonan-2-yl)acetyl]-2-oxo-1-[(1s,3s)-3-(piperidin-1-yl)cyclobutyl]-1,2-dihydrospiro[indole-3,4′-piperidin]-6-yl}-3-(propan-2-yl)-3H-imidazo[4,5-c]pyridin-4-yl)amino]-4-fluoro-2-methyl-N-(propan-2-yl)benzamide] | – |
| 45 to 65% | Cc1cc(F)c(Nc2nc(-c3ccc4c(c3)N([C@H]3C[C@@H](N5CCCCC5)C3)C(=O)C43CCN(C(=O)c4ccc(C(=O)N5CCN(c6cccc7c6C(=O)N(C6CCC(=O)NC6=O)C7=O)CC5)cc4)CC3)cc3ncn(C(C)C)c23)cc1C(=O)NC(C)C (stereo partly drawn) [Example 95, 5-({6-[1′-(4-{4-[2-(2,6-dioxopiperidin-3-yl)-1,3-dioxoisoindol-4-yl]piperazine-1-carbonyl}benzoyl)-2-oxo-1-[(1s,3s)-3-(piperidin-1-yl)cyclobutyl]spiro[indole-3,4′-piperidin]-6-yl]-3-isopropylimidazo[4,5-c]pyridin-4-yl}amino)-4-fluoro-N-isopropyl-2-methylbenzamide] | – |
| < 45% | Cc1cc(F)c(Nc2nc(-c3ccc4c(c3)N([C@H]3C[C@@H](N5CCCCC5)C3)C(=O)C43CCN(C(=O)C4CCN(C(=O)C[C@@H]5CCCN(c6cccc7c6C(=O)N(C6CCC(=O)NC6=O)C7=O)C5)C4)CC3)cc3ncn(C(C)C)c23)cc1C(=O)NC(C)C (stereo partly drawn) [Example 32, 5-({6-[1′-(1-{2-[(3S)-1-{2-[2,6-dioxopiperidin-3-yl]-1,3-dioxo-2,3-dihydro-1H-isoindol-4-yl}piperidin-3-yl]acetyl}pyrrolidine-3-carbonyl)-2-oxo-1-[(1s,3s)-3-(piperidin-1-yl)cyclobutyl]-1,2-dihydrospiro[indole-3,4′-piperidin]-6-yl]-3-(propan-2-yl)-3H-imidazo[4,5-c]pyridin-4-yl}amino)-4-fluoro-2-methyl-N-(propan-2-yl)benzamide] | – |
| < 45% | Cc1cc(F)c(Nc2nc(-c3ccc4c(c3)N([C@H]3C[C@@H](N5CCCCC5)C3)C(=O)C43CCN(C(=O)C4CCN(C(=O)CC5CCN(c6cccc7c6C(=O)N(C6CCC(=O)NC6=O)C7=O)CC5)CC4)CC3)cc3ncn(C(C)C)c23)cc1C(=O)NC(C)C (stereo partly drawn) [Example 36, 5-{[6-(1′-{1-[2-(1-{2-[2,6-dioxopiperidin-3-yl]-1,3-dioxo-2,3-dihydro-1H-isoindol-4-yl}piperidin-4-yl)acetyl]piperidine-4-carbonyl}-2-oxo-1-[(1s,3s)-3-(piperidin-1-yl)cyclobutyl]-1,2-dihydrospiro[indole-3,4′-piperidin]-6-yl)-3-(propan-2-yl)-3H-imidazo[4,5-c]pyridin-4-yl]amino}-4-fluoro-2-methyl-N-(propan-2-yl)benzamide] | – |
